Measured values taken from US4994479A, “Phenylene derivatives and anti-allergic use thereof” (Yamanouchi Pharmaceutical Co., Ltd., priority 1985, dated 1991).

Key:
[1] = tested on: SRS-A-induced contractions of guinea-pig ileum; experiment: Inhibition of SRS-A-induced contractions of isolated guinea-pig ileum; set-up: species or system guinea-pig (male Hartley); details: for IC50: Cavia porcellus, 20 min, submaximal concentration of SRS-A, incubation 20 minutes; for anti-SRS-A activity: in words
Procedure: (§1) Male Hartley guinea- pigs, weighing 500 to 700 g were sacrificed by a blow on the head. The ileum and tracheal strips prepared according to the method of Constantine (1965) were suspended with 1.0 g tension in an organ bath containing 10 ml of Tyrode solution equilibrated with a mixture of 95% O2 and 5% CO2 at 37° C. The tissues were equilibrated for 60 minutes; during this period the Tyrode solution was replaced every 15 minutes and the loading tension was adjusted to 1.0 g. The developed tension of the tissues was measured isometrically with a strain gauge transducer, and recorded on a Recticorder. Both the contractile response of the ileum to submaximal concentration of SRS-A (derived from guinea-pig lung) and tracheal response to 10^-8 M LTD4 were recorded in the absence and then the presence of various concentrations of test compounds. The incubation time of the compounds was 20 minutes.

[2] = tested on: LTD4-enhanced vascular permeability; experiment: Inhibition of LTD4-enhanced vascular permeability in guinea-pigs; format: in vivo, guinea-pig (male Hartley); details: for ED50: Cavia porcellus, 30 minutes before intradermal 5 ng LTD4; for ED50 / inhibition of LTD4-enhanced vascular permeability: oral; for anti-Leukotriene effect by oral route / inhibition of LTD4-enhanced vascular permeability: in words; for inhibition of LTD4-enhanced vascular permeability: 30 minutes before LTD4
Procedure: Male Hartley guinea-pigs weighing 270 to 305, g starved for 16 hours, were intradermally injected with 5 ng LTD4 in a volume of 0.1 ml into two sites on the shaved back. In addition, 0.1 ml of vehicle was injected intradermally in each animal to see non-specific irritation. One ml of saline containing 1% Evans […] was intravenously injected 2 minutes before LTD4 injection. The leaked dye at the site of LTD4 or vehicle injection was extracted according to the method of Harada et al. (1971) and measured photometrically at 620 nm. The LTD4 -induced skin reaction was expressed as a difference in the amount of dye between LTD4 and vehicle. Test compounds were orally administered 30 minutes before LTD4 injection.

[3] = tested on: LTD4-induced contractions of guinea-pig trachea; experiment: Inhibition of LTD4-induced contractions of isolated guinea-pig trachea; set-up: species or system guinea-pig (male Hartley); details: for IC50: Cavia porcellus, 20 min, 10^-8 M LTD4, incubation 20 minutes; for inhibition of contractions induced by LTD4: in words
Procedure: as §1

| SMILES | IC50 [1] [nM] | anti-SRS-A activity [1] | ED50 [2] [mg/kg] | anti-Leukotriene effect by oral route [2] | inhibition of LTD4-enhanced vascular permeability [2] | IC50 [3] [nM] | inhibition of contractions induced by LTD4 [3] |
| --- | --- | --- | --- | --- | --- | --- | --- |
| CCOC(=O)CCc1ccccc1NC(=O)c1ccc(OCCCCc2ccccc2)cc1 [Example 10, Ethyl 3-[o-[p-(4-phenylbutoxy)benzamido]phenyl]propionate] | 18 | potent anti-SRS-A activity |  |  |  |  |  |
| O=C(O)CCc1ccccc1NC(=O)c1ccc(OCCCCc2ccccc2)cc1 [Example 18, 3-[o-[p-(4-Phenylbutoxy)benzamido]phenyl]propionic acid] | 33 | potent anti-SRS-A activity |  |  |  |  |  |
| CCCCCCCOc1cccc(C(=O)Nc2ccccc2OCc2nnn[nH]2)c1 [Example 23, 3-Heptyloxy-2'-(5-tetrazolylmethoxy)benzanilide] | 44 | potent anti-SRS-A activity | 22.8 | potent anti-Leukotriene effect | dose-dependently inhibited | 400 | inhibited the contractions induced by LTD4 |
| Cc1ccc(OCC(=O)O)c(NC(=O)c2ccc(OCCCCc3ccccc3)cc2)c1 [Example 39, 4-methyl-2-[p-(4-phenylbutoxy)benzamido]phenoxyacetic acid] | 7.3 | potent anti-SRS-A activity | 36.1 | potent anti-Leukotriene effect | dose-dependently inhibited | 250 | inhibited the contractions induced by LTD4 |
| O=C(O)COc1ccc(Cl)cc1NC(=O)c1ccc(OCCCCc2ccccc2)cc1 [Example 40, 4-Chloro-2-[p-(4-phenylbutoxy)benzamido]phenoxyacetic acid] | 3.6 | potent anti-SRS-A activity | 5.5 | potent anti-Leukotriene effect | dose-dependently inhibited | 57 | inhibited the contractions induced by LTD4 |
| O=C(O)COc1ccc([N+](=O)[O-])cc1NC(=O)c1ccc(OCCCCc2ccccc2)cc1 [Example 41, 4-Nitro-2-[p-(4-phenylbutoxy)benzamido]phenoxyacetic acid] | 7.4 | potent anti-SRS-A activity |  |  |  |  |  |
| O=C(O)COc1ccccc1NC(=O)c1ccc(OCCCCc2ccccc2)cc1 [Example 42, o-[p-(4-Phenylbutoxy)benzamido]phenoxyacetic acid] | 81 | potent anti-SRS-A activity |  |  |  |  |  |
